In patent US10870647B2, “Imidazopyridine derivative, method for preparing same, and pharmaceutical composition containing same as active ingredient for preventing or treating cancer” (DAEGU-GYEONGBUK MEDICAL INNOVATION FOUNDATION, priority 2016, dated 2020):

Assays:
Assay in all cases: Kinase selectivity, scanMAX Kinase assay panel (DiscoverX), % control at 1 uM
Assay type in all cases: binding
[1] = molecular target: T1, scanMAX Kinase assay panel (Homo sapiens, UniProt P48729); settings: CSNK1A1; 1 uM; read-out: Percent Control (%)
T1 construct: purchased DiscoverX
T1 sequence (P48729 whole entry): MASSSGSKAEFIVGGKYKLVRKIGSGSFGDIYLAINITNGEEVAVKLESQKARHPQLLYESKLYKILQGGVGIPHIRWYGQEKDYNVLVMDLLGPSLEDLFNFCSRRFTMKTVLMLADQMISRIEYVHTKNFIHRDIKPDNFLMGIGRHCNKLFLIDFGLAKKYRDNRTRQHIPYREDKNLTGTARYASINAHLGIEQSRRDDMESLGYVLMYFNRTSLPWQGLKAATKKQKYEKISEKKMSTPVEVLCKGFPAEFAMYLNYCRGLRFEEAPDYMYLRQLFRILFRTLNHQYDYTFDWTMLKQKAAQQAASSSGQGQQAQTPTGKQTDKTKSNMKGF
How it was run: (§1)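 Compounds were tested at 1 uM in DMSO against each enzyme in the panel. Percent control was calculated as (compound − positive control)/(negative control − positive control) × 100, and a compound was scored active on a kinase when this value fell below 35.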

[2] = molecular target: T2, scanMAX Kinase assay panel (Homo sapiens, UniProt Q04771); settings: ACVR1; 1 uM; read-out: Percent Control (%)
T2 construct: purchased DiscoverX
T2 sequence (Q04771 21-509): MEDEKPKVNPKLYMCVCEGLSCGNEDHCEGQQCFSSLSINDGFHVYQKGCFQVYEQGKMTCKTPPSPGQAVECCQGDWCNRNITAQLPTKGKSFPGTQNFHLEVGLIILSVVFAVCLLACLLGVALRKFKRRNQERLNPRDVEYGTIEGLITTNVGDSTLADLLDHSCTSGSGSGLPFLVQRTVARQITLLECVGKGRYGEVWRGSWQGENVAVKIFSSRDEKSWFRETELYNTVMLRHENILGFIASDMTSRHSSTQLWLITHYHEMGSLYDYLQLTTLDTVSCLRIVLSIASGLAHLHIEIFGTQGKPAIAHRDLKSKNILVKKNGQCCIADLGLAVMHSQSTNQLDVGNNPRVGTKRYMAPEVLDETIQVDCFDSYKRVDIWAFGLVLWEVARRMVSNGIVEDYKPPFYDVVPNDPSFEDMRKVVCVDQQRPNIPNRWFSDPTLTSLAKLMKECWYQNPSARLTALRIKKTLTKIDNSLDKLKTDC
How it was run: as §1

[3] = molecular target: T3, scanMAX Kinase assay panel (Homo sapiens, UniProt P57058); settings: HUNK; 1 uM; read-out: Percent Control (%)
T3 construct: purchased DiscoverX
T3 sequence (P57058 1-714): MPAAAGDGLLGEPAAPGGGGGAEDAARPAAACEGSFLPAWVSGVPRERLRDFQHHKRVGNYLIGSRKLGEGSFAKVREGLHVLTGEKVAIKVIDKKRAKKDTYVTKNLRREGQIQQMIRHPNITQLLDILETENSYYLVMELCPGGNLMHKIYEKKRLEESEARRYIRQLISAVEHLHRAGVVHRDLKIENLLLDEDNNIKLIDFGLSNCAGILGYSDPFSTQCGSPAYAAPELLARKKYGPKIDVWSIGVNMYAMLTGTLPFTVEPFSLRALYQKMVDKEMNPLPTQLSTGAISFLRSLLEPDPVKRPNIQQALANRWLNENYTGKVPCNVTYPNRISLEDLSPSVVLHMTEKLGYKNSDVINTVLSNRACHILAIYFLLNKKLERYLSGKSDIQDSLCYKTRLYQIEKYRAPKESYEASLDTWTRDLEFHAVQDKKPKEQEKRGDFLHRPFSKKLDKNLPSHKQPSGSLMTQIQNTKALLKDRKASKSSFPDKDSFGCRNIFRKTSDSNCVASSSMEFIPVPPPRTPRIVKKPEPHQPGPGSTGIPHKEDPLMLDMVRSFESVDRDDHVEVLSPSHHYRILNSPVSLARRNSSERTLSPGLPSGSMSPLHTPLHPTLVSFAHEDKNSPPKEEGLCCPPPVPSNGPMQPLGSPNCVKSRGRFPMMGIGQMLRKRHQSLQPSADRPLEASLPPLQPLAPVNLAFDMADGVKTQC
How it was run: as §1

[4] = molecular target: T4, scanMAX Kinase assay panel (Homo sapiens, UniProt Q59H18); settings: TNNI3K; 1 uM; read-out: Percent Control (%)
T4 construct: purchased DiscoverX
T4 sequence (Q59H18 1-835): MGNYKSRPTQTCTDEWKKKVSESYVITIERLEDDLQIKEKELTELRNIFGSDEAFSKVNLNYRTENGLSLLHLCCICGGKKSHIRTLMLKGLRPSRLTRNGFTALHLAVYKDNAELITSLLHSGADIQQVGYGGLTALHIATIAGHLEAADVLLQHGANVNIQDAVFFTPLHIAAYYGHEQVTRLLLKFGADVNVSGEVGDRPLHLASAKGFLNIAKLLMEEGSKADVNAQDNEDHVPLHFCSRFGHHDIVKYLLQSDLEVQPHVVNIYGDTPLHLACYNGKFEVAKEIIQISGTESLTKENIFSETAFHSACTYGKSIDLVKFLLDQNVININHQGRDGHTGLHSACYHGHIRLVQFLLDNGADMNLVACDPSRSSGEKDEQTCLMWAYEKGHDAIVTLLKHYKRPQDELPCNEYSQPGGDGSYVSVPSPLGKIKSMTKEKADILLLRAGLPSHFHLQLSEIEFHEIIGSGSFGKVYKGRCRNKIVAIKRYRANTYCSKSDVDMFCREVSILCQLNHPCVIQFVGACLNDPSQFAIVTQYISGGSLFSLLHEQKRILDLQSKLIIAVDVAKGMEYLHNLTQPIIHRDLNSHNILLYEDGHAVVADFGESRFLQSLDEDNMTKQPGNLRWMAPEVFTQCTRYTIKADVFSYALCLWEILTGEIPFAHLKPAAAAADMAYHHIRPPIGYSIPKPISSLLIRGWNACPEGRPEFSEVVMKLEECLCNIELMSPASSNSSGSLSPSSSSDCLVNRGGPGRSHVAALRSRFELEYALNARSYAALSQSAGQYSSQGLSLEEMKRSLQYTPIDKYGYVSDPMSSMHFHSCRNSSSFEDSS
How it was run: as §1

SMILES | remaining binding at 1 µM [1] [%] | remaining binding at 1 µM [2] [%] | remaining binding at 1 µM [3] [%] | remaining binding at 1 µM [4] [%]
Cc1ccc(C(=O)Nc2ccc(CN3CCN(C)CC3)c(C(F)(F)F)c2)cc1C#Cc1cnc2c(Nc3cnn(C)c3)cccn12 [Example 1, 4-methyl-3-((8-((1-methyl-1H-pyrazol-4-yl)amino)imidazo[1,2-a]pyridin-3-yl)ethynyl)-N-(4-((4-methylpiperazin-1-yl)methyl)-3-(trifluoromethyl)phenyl)benzamide] | 67 | 100 | 74 | 0
Cc1cn(-c2cc(NC(=O)c3ccc(C)c(C#Cc4cnc5c(Nc6cnn(C)c6)cccn45)c3)cc(C(F)(F)F)c2)cn1 [Example 12, 4-methyl-N-(3-(4-methyl-1H-imidazol-1-yl)-5-(trifluoromethyl)phenyl)-3-((8-((1-methyl-1H-pyrazol-4-yl)amino)imidazo[1,2-a]pyridin-3-yl)ethynyl)benzamide] | 76 | 100 | 79 | 25
Cc1ccc(NC(=O)C2(C(=O)Nc3ccc(F)cc3)CC2)cc1C#Cc1cnc2c(Nc3cnn(C(C)C)c3)cccn12 [Example 78] | 85 | 100 | 93 | 93
